Reference: US20230407304A1, “USE OF MICRORNA INHIBITION TO PREVENT AND TREAT OSTEOARTHRITIS AND OTHER INFLAMMATORY DISEASES” (VIRGINIA COMMONWEALTH UNIVERSITY, priority 2020, published 2023)
“Also recorded” adds a separate entry of the source.

Columns and labels:
[1] = tested on: rat articular chondrocytes (rArCs); test: miR mimic or inhibitor transfection of rArCs with or without TNF-α stimulation; type: cell-based
Protocol: FIGS. 7A-7F show assessment of miR-122 and miR-451 transfection or inhibition on TNF-α stimulated rat articular chondrocytes. rArCs were transfected at 60% confluence with miR-122, miR-451, miR-122-inhibitor (122-Inh), miR-451 inhibitor (451-Inh), or an empty vehicle (Lipo) for 24 hours followed by 24 hours with or without 10 ng/mL TNF-α stimulation. (FIG. 7A, 7D) Total DNA was measured from the cell monolayer and (FIG. 7B, 7E) MMP-13 and (FIG. 7C, 7F) PGE2 proteins were measured from the conditioned media. Groups not sharing a letter (A, B or C over bar) are statistically significant using an alpha=0.05.
Rat articular chondrocytes (rArCs) were isolated using a previously established protocol (see Scott, supra). Briefly, rArCs were isolated from femoral condyles and tibial plateaus from 100-125 g male Sprague Dawley rats. Cartilage was sterilely sliced from the articular surfaces using a surgical blade and placed in Dulbecco's modification of Eagle's medium with 1 g/L glucose, 50 U/mL penicillin and streptomycin (pen-strep) (DMEM). After removing DMEM, cartilage was incubated with 0.05% trypsin (20 mins, 37° C.), rinsed with DMEM (50 U/mL pen-strep, 20 mins, 37° C.), and then digested with sterile-filtered 0.03% collagenase type II solution (Worthington Biochemical, Lakewood, NJ) in Hank's balanced salt solution (16 hrs, 37° C.). Digestion was quenched with an equal volume of DMEM containing 10% fetal bovine serum (FBS) and 50 U/mL pen-strep, strained through a 40 μm strainer (Greiner Bio-one, North Carolina), spun down at 500×g for 10 mins and plated at a seeding density of 15,000 cells/cm^2. These cells are at passage 0. All experiments used cells at passage 1.
rArCs were plated at a seeding density of 15,000 cells/cm^2 and fed with DMEM supplemented with 10% FBS and 50 U/mL pen-strep. Media were changed 24 hours after plating and then every 48 hours. After treatments described below, conditioned media were collected, centrifuged at 1,000×g for 10 mins to remove cellular debris, aliquoted, and stored at −80° C. until assayed. Cell monolayers were rinsed twice with 1 mL of 1×PBS, lysed in 500 μL of 0.05% Triton X-100, and frozen for later DNA analysis. MMP-13 (ANASpec, Fremont, CA) and PGE2 (R&D Systems) were measured in the conditioned media by a microplate reader at ex/em 490 nm/520 nm, and 450 nm absorbance, respectively, in accordance with the manufacturer's directions. Data were normalized to the DNA content of the cell monolayer. Cell layers were thawed, and mechanically lysed by ultrasonication (40V, 10s/well) (VCX-120; Vibra-cell, Newtown, CT) and DNA was measured using QuantiFluor dsDNE system kit (Promega, Madson, WI) and quantified on a fluorescence plate reader at ex/em 504 nm/531 nm. […]

[2] = tested on: articular chondrocytes; test: miR-122 / miR-451 transfection of articular chondrocytes in presence and absence of IL-1β; type: cell-based, rat
Source text: The following Examples with these microRNAs established their functions in articular chondrocytes in the presence and absence of the inflammatory cytokine IL-1β. Since IL-1β signaling is a major contributor of OA, a well-established model of creating an osteoarthritic phenotype in vitro is to stimulate cell cultures with this cytokine. This study first established that both these microRNAs were elevated in OA in the bilateral ACLT model.
The miR-451 miR (SEQ ID NO:10) was originally chosen as a control miR but it had surprising and very specific functions. […] A series of transfections and inhibition experiments with these microRNAs confirmed that these changes were due to the microRNAs themselves.

[3] = tested on: rat articular chondrocytes (rArCs); test: WNT/β-catenin agonist or antagonist treatment of rArCs with or without TNF-α; type: cell-based
[4] = tested on: rat articular chondrocytes (rArCs); test: WNT/β-catenin agonist or antagonist treatment of rArCs with or without IL-1β; type: cell-based
[5] = tested on: WNT/β-catenin; conditions: literature; cited from earlier work
[6] = tested on: rat articular chondrocytes (rArCs); test: Stimulation of rArCs with IL-1β or TNF-α (total DNA, MMP-13, PGE2); type: cell-based; conditions: 10 ng/mL IL-1β or 5 and 10 ng/mL TNF-α, 24 hours, vs control
Protocol: FIGS. […] (FIG. 6A) Total DNA was measured from the cell monolayer and (FIG. 6B) MMP-13, and (FIG. 6C) PGE2 proteins were measured from the conditioned media. Groups not sharing a letter (D, C, B or A over bar) are statistically significant using an alpha=0.05.
Rat articular chondrocytes (rArCs) were isolated using a previously established protocol (see Scott, supra). Briefly, rArCs were isolated from femoral condyles and tibial plateaus from 100-125 g male Sprague Dawley rats. Cartilage was sterilely sliced from the articular surfaces using a surgical blade and placed in Dulbecco's modification of Eagle's medium with 1 g/L glucose, 50 U/mL penicillin and streptomycin (pen-strep) (DMEM). […]
rArCs were plated at a seeding density of 15,000 cells/cm^2 and fed with DMEM supplemented with 10% FBS and 50 U/mL pen-strep. […] MMP-13 (ANASpec, Fremont, CA) and PGE2 (R&D Systems) were measured in the conditioned media by a microplate reader at ex/em 490 nm/520 nm, and 450 nm absorbance, respectively, in accordance with the manufacturer's directions. […] Cell layers were thawed, and mechanically lysed by ultrasonication (40V, 10s/well) (VCX-120; Vibra-cell, Newtown, CT) and DNA was measured using QuantiFluor dsDNE system kit (Promega, Madson, WI) and quantified on a fluorescence plate reader at ex/em 504 nm/531 nm. […]

[7] = miR transfection of articular chondrocytes
[8] = miR transfection plus IL-1β stimulation

In the case of “miR-122: mirVana miRNA mimic rno-miR-122-5p; UGGAGUGUGACAAUGGUGUUUG (UGGAGUGUGACAAUGGUGUUUG; listed as RNA, chemistry not given here)”, the “change of total DNA on TNF-α treatment in transfected cells” value ([1]; 14.5 nM mimic 24 hours, then 10 ng/mL TNF-α 24 hours) is reported as “modestly decreased total DNA”, the “total DNA after mimic transfection” value ([1]; 14.5 nM mimic, 24 hours, vs Lipo control) is reported as “increased total DNA” and the proliferation [2, 7] is reported as “stimulated proliferation”. The “total DNA” value [2, 7] was “increased total DNA”, the “IL-1β-stimulated MMP-13” value [2, 8] was “able to prevent the IL-1β-stimulated increase” and the “IL-1β-stimulated PGE2” value [2, 8] was “able to prevent the IL-1β-stimulated increase”. For the same compound, the “growth factor VEGF” value [2, 8] was “prevented IL-1β-stimulated increase” and the “inflammatory mediators, cytokines, chemokines (IL-1α, IL-2, IL-4, IL-6, GM-CSF, MIP-1A; RANTES for miR-122)” value [2, 8] was “prevented IL-1β-stimulated increase”.

For `[Cl-].[Li+]` [LiCl, lithium chloride], the “total DNA” value [3] was “decreased total DNA to similar levels; also recorded: marginally decreased this” and the “total DNA” value [4] was “decreased total DNA”.

For `Cn1ncnc2c(=O)n(C)c(=O)nc1-2` [PKF, PKF-118-310], the “IL-1β and TNF-α induced cartilage degradation” value [5] is listed as “block IL-1β and TNF-α induced cartilage degradation” and the “total DNA” value [4] is listed as “drastically decreased total DNA”.

In the case of TNF-α, the “total DNA of cell monolayer” value [6] is reported as “no differences in DNA”.

In the case of PKF115-584, the “IL-1β and TNF-α induced cartilage degradation” value [5] is listed as “block IL-1β and TNF-α induced cartilage degradation”.

With “IL-1β: inflammatory cytokine (Peprotech) used to stimulate chondrocyte cultures” the “total DNA of cell monolayer” value [6] was “no differences in DNA”.
